Laboratory results taken from PubChem BioAssay AID743116 (Broad Institute, 2013).
Active and inactive are the calls of the source.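 The calls were made as follows: active = compounds whose dose curve reaches a melting temperature rise of about 0.39 degC within the tested concentrations; inconclusive = flat curve with moderate shift, or unreliable curve fit; inactive = the rest.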

molecular target: Fibroblast growth factor 22 (Homo sapiens) (UniProt Q9HCT0); assay: ligand stabilization of recombinant FGF22 – biophysical, SYPRO orange melt, qPCR instrument, dry powder, dose response (AID 743116); details: Recombinant FGF22 thermal shift, SYPRO orange fluorescence
Sequence (Q9HCT0 whole entry, looked up): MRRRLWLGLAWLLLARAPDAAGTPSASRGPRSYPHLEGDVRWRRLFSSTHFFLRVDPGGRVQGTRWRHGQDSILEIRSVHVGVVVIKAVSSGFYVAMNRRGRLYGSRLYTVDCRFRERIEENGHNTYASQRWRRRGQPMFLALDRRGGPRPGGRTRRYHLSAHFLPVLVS

Structure (SMILES)	AC50
Nc1cccc(-c2nc3ccc(C(=O)c4ccccc4)cc3[nH]2)c1	29.5 µM
O=C(N/N=C/c1c[nH]c2ccccc12)c1cccc(Cl)c1	15.5 µM
COc1cc(/C=N/NC(=O)c2cc3ccccc3[nH]2)ccc1O	10.1 µM
COC(=O)C[C@H]1CC[C@@H]2[C@@H](COc3ccc(NC(=O)Nc4ccc(C#N)cc4)cc3C(=O)N2C)O1	> 38 µM (inactive)
CCc1cc(-c2[nH]ncc2-c2ccc3c(c2)OCCO3)c(O)cc1O	24 µM
O=C(N/N=C/c1c[nH]c2ccccc12)c1cccc(O)c1	0.318 µM
Cc1cc(NC(=O)Nc2ccc3c(ccn3C)c2)sn1	24.7 µM
O=C(N/N=C/c1c[nH]c2ccccc12)c1cccs1	5.49 µM
Nc1ccc(C(=O)N/N=C/c2c[nH]c3ccccc23)cc1	24.3 µM
O=C(Nc1ccc(S(=O)(=O)N2CCCC2)cc1)c1ccccc1	36.6 µM
CSc1ccc(/C=N/NC(=O)c2ccc3nc[nH]c3c2)cc1	9.97 µM

same assay, conditions: Recombinant FGF22 thermal shift, SYPRO orange fluorescence; at 19.5 µM (top of the series)

Structure (SMILES)	melting temperature shift, positive = stabilization
CC(=O)Nc1ccc(NC(=O)Nc2ccccc2)cc1	inactive
Cc1[nH]c2ccccc2c1C(=O)NS(=O)(=O)Nc1ccc(Cl)cc1	inactive
CC(C)c1c(C(=O)N/N=C/c2c[nH]c3ccccc23)nnn1-c1nonc1N	inactive

same assay, conditions: Recombinant FGF22 thermal shift, SYPRO orange fluorescence; at 38 µM (top of the series)

Structure (SMILES)	melting temperature shift, positive = stabilization
O=C(N/N=C/c1c[nH]c2ccccc12)c1ccc(O)c(O)c1	inactive
O=C(Nc1ccc(S(=O)(=O)N2CCOCC2)cc1)c1ccc(F)cc1	inactive
O=C(N/N=C/c1cccc(Oc2ccccc2)c1)c1cccc(O)c1	inactive
Cc1ccn(-c2ccc(NC(=O)c3cccs3)cc2)n1	inactive
CCc1cc(-c2n[nH]c(C)c2-c2ccc3c(c2)OCCO3)c(O)cc1O	inactive
COC(=O)C1=C(CS(=O)(=O)c2cc(OC)ccc2OC)NC(=O)NC1c1ccc(O)c(OC)c1 (stereo not given)	inactive
Cc1ccc(S(=O)(=O)N2C[C@@H](O)COC[C@@H]3O[C@@H](CC(=O)NCc4ccc(Cl)c(Cl)c4)CC[C@H]32)cc1	inactive
CCCNC(=O)COC(=O)c1ccccc1C(=O)N(C)C1CCCCC1	inactive
O=C(Nc1cc(Cl)cc(Cl)c1)N[C@@H]1CC[C@@H](CCNS(=O)(=O)c2cccc(F)c2)O[C@@H]1CO	inactive
O=C(Nc1ccc(S(=O)(=O)N2CCCC2)cc1)c1cccs1	inactive
CCOc1cccc(C(=O)Nc2ccc3[nH]ncc3c2)c1	inactive
CC(=O)Nc1cccc(C(=O)N/N=C/c2c[nH]c3ccccc23)c1	inactive
CC(=O)c1ccc(NC(=O)Nc2cccnc2)cc1	inactive
Clc1ccc(Nc2ccc(NCc3ccccc3)nn2)cc1	inactive
O=C(N/N=C/c1ccc(C(F)(F)F)cc1)c1ccc(O)cc1	inactive
COc1ccc(C)cc1NS(=O)(=O)c1ccc(NS(=O)(=O)c2ccc(NC(C)=O)cc2)cc1	inactive
Cc1ccc(OCCCC(=O)Nc2ccc(S(=O)(=O)N3CCOCC3)cc2)cc1	inactive
COC(=O)C[C@H]1CC[C@@H]2[C@@H](COc3ccc(NC(=O)Nc4cccc(C#N)c4)cc3C(=O)N2C)O1	inactive

Structure (SMILES)	melting temperature shift, positive = stabilization
CCNC(=O)C[C@@H]1CC[C@H]2[C@H](COc3ccc(NC(=O)Nc4ccc(Cl)cc4)cc3C(=O)N2C)O1	inactive
O=C(NCCc1c[nH]c2ccccc12)c1ccc(Cl)cc1	inactive
COc1ccc(-c2nc(-c3ccc(O)cc3O)cs2)cc1OC	inactive
Cc1[nH]c2ccc(C(=O)OCC(=O)Nc3cccc(S(N)(=O)=O)c3)cc2c1C	inactive
O=C(Nc1cc(Cl)cc(Cl)c1)N[C@@H]1CC[C@@H](CCNS(=O)(=O)c2cccc(F)c2)O[C@H]1CO	inactive
Cc1ccc(S(=O)(=O)N2C[C@H](O)COC[C@H]3O[C@H](CC(=O)NCc4ccc(Cl)c(Cl)c4)CC[C@@H]32)cc1	inactive
O=C(C[C@H]1CC[C@@H]2[C@H](COC[C@H](O)CN2S(=O)(=O)c2cccc(Cl)c2)O1)Nc1ccccc1	inactive
O=C(Nc1ccc(Cl)cc1)N[C@@H]1CC[C@@H](CCNS(=O)(=O)c2ccccc2F)O[C@H]1CO	inactive
Cc1cc(C(=O)N/N=C/c2c[nH]c3ccccc23)cs1	inactive
CC(=O)Nc1cccc(NC(=O)c2ccc3[nH]c(C)c(C)c3c2)c1	inactive
O=C(Nc1nccs1)C1CC(=O)N(c2ccc(F)cc2)C1 (stereo not given)	inactive
CCN1C(=O)C(CC(=O)Nc2ccc(F)cc2)N(Cc2ccc3c(c2)OCO3)C1=S (stereo not given)	inactive
O=S1(=O)N=C(N(Cc2cccs2)c2ccc(O)cc2)c2ccccc21	inactive
O=C(O)Cc1ccc(NC(=O)c2ccc(Cl)c(Cl)c2)cc1	inactive
CN(Cc1c(C(=O)N/N=C/c2ccc(O)cc2)nnn1-c1nonc1N)c1ccccc1	inactive
O=S(=O)(Nc1nnc(C(F)(F)F)s1)c1ccc(Cl)cc1	inactive
CCN1C/C(=C/c2cccs2)c2nc3ccccc3c(C(=O)O)c2C1	inactive
COc1ccc(Nc2nc3ccc(OC)cc3s2)cc1	inactive
